{
  "source": "patent US9730871B2",
  "about": "“Antiperspirant/deodorant cosmetic compositions” (Colgate-Palmolive Company, priority 2012, dated 2017)",
  "system": "staphylococcus hemolyticus",
  "assay": "Growth of underarm bacteria on agar plates coated with stick formulation, colony count",
  "format": "cell-based",
  "conditions": "for Bacteria count: 37° C., 16 hours, 0% control count 172; for Effect on growth / colony formation of staphylococcus hemolyticus (in words): sticks with 5-15% lauric acid coated on agar",
  "experimental": "Four simplified stick compositions, each comprising 20% stearyl alcohol gellant and 0%, 5%, 10% and 15% lauric acid, respectively, were prepared. Stearyl alcohol is not considered to be an antibacterial agent. The remainder of each stick consisted of C12-C15 alkyl benzoates, which are synthetic emollients with no antibacterial activity.\nA thin layer of each formulation was coated onto an agar plate, by moving the stick across the surface of the plate. A solution of staphylococcus hemolyticus bacteria at 0.1 optical density as measured by UV spectroscopy was diluted by a factor of 40. […] of the bacterial solution was then applied to the agar plate. The plate was incubated at 37° C. for 16 hours. The number of colonies formed on each plate was then recorded.",
  "data": [
    {"smiles": "CCCCCCCCCCCC(=O)O", "note": "[Laurie acid, lauric acid]", "values": [
      {"measurement": "Bacteria count", "setting": "5% lauric acid in stick with 20% stearyl alcohol and C12-C15 alkyl benzoates", "value": 120},
      {"measurement": "Bacteria count", "setting": "10% lauric acid in stick with 20% stearyl alcohol and C12-C15 alkyl benzoates", "value": 102},
      {"measurement": "Bacteria count", "setting": "15% lauric acid in stick with 20% stearyl alcohol and C12-C15 alkyl benzoates", "value": 49},
      {"measurement": "Effect on growth / colony formation of staphylococcus hemolyticus (in words)", "value": "inhibit the growth"},
      {"measurement": "Effect on growth / colony formation of staphylococcus hemolyticus (in words)", "setting": "listed as lauric acid", "value": "reduction on the number of bacterial colonies formed"}
    ]}
  ]
}
